Data published in article PMC4256409, “Role of Phenylalanine and Valine^10 Residues in the Antimicrobial Activity and Cytotoxicity of Piscidin-1” (PLoS ONE, 2014).
Where no end group is shown, it is not given here.

Columns and labels:
E. coli KCTC1682 = type: cell-based, Escherichia coli; settings: KCTC1682, 16 h
E. coli KCTC2593 = type: cell-based, Escherichia coli; settings: KCTC2593, 16 h
E.coli KCTC2571 = type: cell-based, Escherichia coli; settings: KCTC2571, 16 h
P. aeruginosa KCTC1637 = type: cell-based, Pseudomonas aeruginosa; settings: KCTC1637, 16 h
P. aeruginosa KCTC2004 = type: cell-based, Pseudomonas aeruginosa; settings: KCTC2004, 16 h
P. aeruginosa KCTC2513 = type: cell-based, Pseudomonas aeruginosa; settings: KCTC2513, 16 h
S. typhimurium KCTC1926 = type: cell-based, Salmonella typhimurium; settings: KCTC1926, 16 h
B. subtilis KCTC3068 = type: cell-based, Bacillus subtilis; settings: KCTC3068, 16 h
B. subtilis KCTC1021 = type: cell-based, Bacillus subtilis; settings: KCTC1021, 16 h
B. subtilis KCTC1022 = type: cell-based, Bacillus subtilis; settings: KCTC1022, 16 h
S. epidermidis KCTC1917 = type: cell-based, Staphylococcus epidermidis; settings: KCTC1917, 16 h
S. aureus KCTC1621 = type: cell-based, Staphylococcus aureus; settings: KCTC1621, 16 h
S. aureus KCTC1916 = type: cell-based, Staphylococcus aureus; settings: KCTC1916, 16 h
S. aureus KCTC3881 = type: cell-based, Staphylococcus aureus; settings: KCTC3881, 16 h
MRSA CCARM3089 = type: cell-based, Methicillin-resistant S. aureus; settings: CCARM3089, 16 h
MRSA CCARM 3090 = type: cell-based, Methicillin-resistant S. aureus; settings: CCARM 3090, 16 h
MRSA CCARM 3108 = type: cell-based, Methicillin-resistant S. aureus; settings: CCARM 3108, 16 h
MRSA CCARM 3114 = type: cell-based, Methicillin-resistant S. aureus; settings: CCARM 3114, 16 h
MRSA CCARM 3126 = type: cell-based, Methicillin-resistant S. aureus; settings: CCARM 3126, 16 h
MDRST CCARM 8003 = type: cell-based, multidrug-resistant S. typhimurium; settings: broth microdilution, 37°C, 16 h, three independent experiments in triplicate, SD 14.0%
MDRST CCARM 8007 = type: cell-based, multidrug-resistant S. typhimurium; settings: broth microdilution, 37°C, 16 h, three independent experiments in triplicate, SD 14.0%
MDRST CCARM 8009 = type: cell-based, multidrug-resistant S. typhimurium; settings: broth microdilution, 37°C, 16 h, three independent experiments in triplicate, SD 14.0%
MDREC CCARM 1229 = type: cell-based, multidrug-resistant E. coli; settings: broth microdilution, 37°C, 16 h, three independent experiments in triplicate, SD 14.0%
MDREC CCARM 1238 = type: cell-based, multidrug-resistant E. coli; settings: broth microdilution, 37°C, 16 h, three independent experiments in triplicate, SD 14.0%
MDRAB CCARM 12005 = type: cell-based, multidrug-resistant Acinetobacter baumanii; settings: broth microdilution, 37°C, 16 h, three independent experiments in triplicate, SD 14.0%
MDRAB CCARM 12035 = type: cell-based, multidrug-resistant Acinetobacter baumanii; settings: broth microdilution, 37°C, 16 h, three independent experiments in triplicate, SD 14.0%
MDRAB CCARM 12036 = type: cell-based, multidrug-resistant Acinetobacter baumanii; settings: broth microdilution, 37°C, 16 h, three independent experiments in triplicate, SD 14.0%
MDRAB CCARM 12037 = type: cell-based, multidrug-resistant Acinetobacter baumanii; settings: broth microdilution, 37°C, 16 h, three independent experiments in triplicate, SD 14.0%
MDRPA CCARM 2002 = type: cell-based, multidrug-resistant P. aeruginosa; settings: broth microdilution, 37°C, 16 h, three independent experiments in triplicate, SD 14.0%
MDRPA CCARM 2003 = type: cell-based, multidrug-resistant P. aeruginosa; settings: broth microdilution, 37°C, 16 h, three independent experiments in triplicate, SD 14.0%
MDRPA CCARM 2095 = type: cell-based, multidrug-resistant P. aeruginosa; settings: broth microdilution, 37°C, 16 h, three independent experiments in triplicate, SD 14.0%
MDRPA CCARM 2163 = type: cell-based, multidrug-resistant P. aeruginosa; settings: broth microdilution, 37°C, 16 h, three independent experiments in triplicate, SD 14.0%
[1] = test system: Standard bacterial strains; type: cell-based; settings: average over the 14 standard bacterial strains of Table 2
[2] = test system: Drug-resistant bacterial strains; settings: average over the 18 drug-resistant bacterial strains of Table 3
Source text: Escherichia coli KCTC 1682, E. coli KCTC 2593, E. coli KCTC 2571, Salmonella typhimurium KCTC 1926, Pseudomonas aeruginosa KCTC 1637, P. aeruginosa KCTC 2004, P. aeruginosa KCTC 2513, Bacillus subtilis KCTC 3068, B. subtilis KCTC 1021, B. subtilis KCTC 1022, Staphylococcus epidermidis KCTC 1917, Staphylococcus aureus KCTC 1621, S. aureus KCTC 1916, and S. aureus KCTC 3881 were purchased from the Korean Collection for Type Cultures, Korea Research Institute of Bioscience & Biotechnology (Taejon, Korea). Methicillin-resistant S. aureus (MRSA) (CCARM 3089, CCARM 3090, CCARM 3108, CCARM 3114, and CCARM 3126), multidrug-resistant E. coli (MDREC) (CCARM 1229 and CCARM 1238), multidrug-resistant S. typhimurium (MDRST) (CCARM 8003, CCARM 8007, and CCARM 8009), multidrug-resistant Acinetobacter baumanii (MDRAB) (CCARM 12005, CCARM 12035, CCARM 12036, CCARM 12037), and multidrug-resistant P. aeruginosa (MDRPA) (CCARM 2002, CCARM 2003, CCARM 2095, and CCARM 2163) were obtained from the Culture Collection of Antibiotic-Resistant Microbes (CCARM) at Seoul Women’s University in Korea. The antimicrobial activities of the peptides against selected organisms, including three Gram-positive, three Gram-negative, and five antibiotic-resistant bacteria, were determined using a broth microdilution assay. Briefly, single colonies of bacteria and fungi were inoculated into Luria-Bertani (LB) medium and cultured overnight at 37°C. An aliquot of the culture was transferred to 10 mL of fresh LB and incubated for an additional 3–5 h at 37°C until it reached the mid-logarithmic phase. Two-fold serial dilutions of the peptides in 1% peptone were prepared. The serial dilutions (100 µL) were added to 100 µL of cells (2×10^6 colony-forming units (CFU)/mL) in 96-well microtiter plates and incubated at 37°C for 16 h. […] MIC values were calculated as the average of triplicate measurements from three independent assays.

Sequence	MIC (E. coli KCTC1682)	MIC (E. coli KCTC2593)	MIC (E.coli KCTC2571)	MIC (P. aeruginosa KCTC1637)	MIC (P. aeruginosa KCTC2004)	MIC (P. aeruginosa KCTC2513)	MIC (S. typhimurium KCTC1926)	MIC (B. subtilis KCTC3068)	MIC (B. subtilis KCTC1021)	MIC (B. subtilis KCTC1022)	MIC (S. epidermidis KCTC1917)	MIC (S. aureus KCTC1621)	MIC (S. aureus KCTC1916)	MIC (S. aureus KCTC3881)	MIC (MRSA CCARM3089)	MIC (MRSA CCARM 3090)	MIC (MRSA CCARM 3108)	MIC (MRSA CCARM 3114)	MIC (MRSA CCARM 3126)	MIC (MDRST CCARM 8003)	further results
AFHHIFRGIVHVGKTIHRLVTG [Pis-F1A]	2.0 µM	2.0 µM	2.0 µM	4.0 µM	4.0 µM	8.0 µM	8.0 µM	4.0 µM	4.0 µM	1.0 µM	2.0 µM	1.0 µM	1.0 µM	2.0 µM	8.0 µM	8.0 µM	8.0 µM	8.0 µM	8.0 µM	8.0 µM	MIC (MDRST CCARM 8007): 8.0 µM; MIC (MDRST CCARM 8009): 8.0 µM; MIC (MDREC CCARM 1229): 8.0 µM; MIC (MDREC CCARM 1238): 8.0 µM; MIC (MDRAB CCARM 12005): 2.0 µM; MIC (MDRAB CCARM 12035): 2.0 µM; MIC (MDRAB CCARM 12036): 2.0 µM; MIC (MDRAB CCARM 12037): 2.0 µM; MIC (MDRPA CCARM 2002): 2.0 µM; MIC (MDRPA CCARM 2003): 2.0 µM; MIC (MDRPA CCARM 2095): 2.0 µM; MIC (MDRPA CCARM 2163): 2.0 µM; Average MIC [1]: 3.2 µM; Average MIC [2]: 5.3 µM
FAHHIFRGIVHVGKTIHRLVTG [Pis-F2A]	2.0 µM	2.0 µM	2.0 µM	4.0 µM	8.0 µM	8.0 µM	16 µM	4.0 µM	8.0 µM	1.0 µM	2.0 µM	4.0 µM	1.0 µM	2.0 µM	16 µM	16 µM	16 µM	16 µM	16 µM	32 µM	MIC (MDRST CCARM 8007): 16 µM; MIC (MDRST CCARM 8009): 16 µM; MIC (MDREC CCARM 1229): 16 µM; MIC (MDREC CCARM 1238): 16 µM; MIC (MDRAB CCARM 12005): 4.0 µM; MIC (MDRAB CCARM 12035): 4.0 µM; MIC (MDRAB CCARM 12036): 4.0 µM; MIC (MDRAB CCARM 12037): 4.0 µM; MIC (MDRPA CCARM 2002): 4.0 µM; MIC (MDRPA CCARM 2003): 4.0 µM; MIC (MDRPA CCARM 2095): 4.0 µM; MIC (MDRPA CCARM 2163): 4.0 µM; Average MIC [1]: 4.6 µM; Average MIC [2]: 12 µM
FFHHIARGIVHVGKTIHRLVTG [Pis-F6A]	2.0 µM	2.0 µM	4.0 µM	4.0 µM	8.0 µM	16 µM	16 µM	4.0 µM	16 µM	2.0 µM	4.0 µM	4.0 µM	2.0 µM	4.0 µM	32 µM	32 µM	16 µM	16 µM	16 µM	32 µM	MIC (MDRST CCARM 8007): 16 µM; MIC (MDRST CCARM 8009): 16 µM; MIC (MDREC CCARM 1229): 32 µM; MIC (MDREC CCARM 1238): 32 µM; MIC (MDRAB CCARM 12005): 4.0 µM; MIC (MDRAB CCARM 12035): 4.0 µM; MIC (MDRAB CCARM 12036): 4.0 µM; MIC (MDRAB CCARM 12037): 4.0 µM; MIC (MDRPA CCARM 2002): 4.0 µM; MIC (MDRPA CCARM 2003): 4.0 µM; MIC (MDRPA CCARM 2095): 4.0 µM; MIC (MDRPA CCARM 2163): 4.0 µM; Average MIC [1]: 6.3 µM; Average MIC [2]: 15 µM
FFHHIFRGIKHVGKTIHRLVTG [Pis-V10K]	1.0 µM	2.0 µM	2.0 µM	1.0 µM	2.0 µM	2.0 µM	1.0 µM	1.0 µM	4.0 µM	2.0 µM	1.0 µM	1.0 µM	2.0 µM	1.0 µM	8.0 µM	8.0 µM	4.0 µM	4.0 µM	4.0 µM	8.0 µM	MIC (MDRST CCARM 8007): 4.0 µM; MIC (MDRST CCARM 8009): 4.0 µM; MIC (MDREC CCARM 1229): 4.0 µM; MIC (MDREC CCARM 1238): 4.0 µM; MIC (MDRAB CCARM 12005): 2.0 µM; MIC (MDRAB CCARM 12035): 2.0 µM; MIC (MDRAB CCARM 12036): 2.0 µM; MIC (MDRAB CCARM 12037): 2.0 µM; MIC (MDRPA CCARM 2002): 2.0 µM; MIC (MDRPA CCARM 2003): 2.0 µM; MIC (MDRPA CCARM 2095): 2.0 µM; MIC (MDRPA CCARM 2163): 2.0 µM; Average MIC [1]: 1.6 µM; Average MIC [2]: 3.8 µM
FFHHIKRGIKHVGKTIHRLVTG [Pis-F6K/V10K]	2.0 µM	4.0 µM	4.0 µM	4.0 µM	8.0 µM	8.0 µM	8.0 µM	4.0 µM	8.0 µM	4.0 µM	4.0 µM	4.0 µM	4.0 µM	4.0 µM	8.0 µM	8.0 µM	8.0 µM	8.0 µM	8.0 µM	16 µM	MIC (MDRST CCARM 8007): 8.0 µM; MIC (MDRST CCARM 8009): 8.0 µM; MIC (MDREC CCARM 1229): 8.0 µM; MIC (MDREC CCARM 1238): 8.0 µM; MIC (MDRAB CCARM 12005): 4.0 µM; MIC (MDRAB CCARM 12035): 4.0 µM; MIC (MDRAB CCARM 12036): 4.0 µM; MIC (MDRAB CCARM 12037): 4.0 µM; MIC (MDRPA CCARM 2002): 4.0 µM; MIC (MDRPA CCARM 2003): 4.0 µM; MIC (MDRPA CCARM 2095): 2.0 µM; MIC (MDRPA CCARM 2163): 2.0 µM; Average MIC [1]: 5.0 µM; Average MIC [2]: 6.4 µM
